Assay results taken from patent US11542259B2, “Compounds for the treatment of kinase-dependent disorders” (Exelixis, Inc., priority 2018, dated 2023).
pIC50: −log10 of the molar value.

Experiments:
[1] = biological target: Human Axl (residues H473-A894 with Q764R) (Homo sapiens (Human), UniProt P30530, Q764R); assay: Human AXL kinase assay (33P radiometric, KinaseProfiler); format: biochemical; settings: 10 μM ATP
Method: Kinase activity and compound inhibition were investigated using the ^33P-Phosphoryl transfer radiometric kinase assay, performed using the KinaseProfiler™ service of Eurofins Pharma Discovery Services UK Limited. Dose-response experiments were performed using nine compound concentrations in a 96-well microtiter plate. For each assay, all compounds were prepared to a 50× final assay concentration (50 μM) in 100% DMSO, then diluted in a half-log series, with the final top concentration at 1 μM. This working stock of the compound was added to the assay well as the first component in the reaction, followed by the remaining components as detailed in the following assay protocols below. The positive control wells (100% kinase activity) contain all components of the reaction including 2% DMSO (control for solvent effects), except the compound of interest. Blank wells contain all components of the reaction, with the reference inhibitor, staurosporine. This reference compound was used to abolish kinase activity and generated the 0% kinase activity base-line. IC50 values were calculated by nonlinear regression analysis using the sigmoidal dose-response (variable slope) curve fit on XLFit version 5.3 (ID Business Solutions).
Human Axl (residues H473-A894 with Q764R, 161 nM) was incubated with 8 mM MOPS pH 7.0, 0.2 mM EDTA, 250 μM KKSRGDYMTMQIG (SEO ID NO. 43) 10 mM magnesium acetate and 10 μM [γ-33P-ATP]. The reaction was initiated by the addition of the Mg/ATP mix. After incubation for 40 minutes at room temperature, the reaction was stopped by the addition of phosphoric acid to a concentration of 0.5%. A reaction aliquot of 10 μL was then spotted onto a P30 filtermat and washed four times for 4 minutes in 0.425% phosphoric acid and once in methanol prior to drying and scintillation counting. Incorporated ^33P was measured using the Wallac Microbeta scintillation counter (Perkin Elmer).

[2] = biological target: KDR (Homo sapiens (Human), UniProt P35968); assay: KDR autophosphorylation ELISA in HUVEC cells; format: cell-based; settings: cellular, VEGF165 stimulated
In short: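 Inhibition of VEGF165-induced KDR phosphorylation was determined in serum-starved HUVEC after 1 h compound pretreatment and 5 min stimulation with 100 ng/mL VEGF165. Lysate phospho-KDR was measured by ELISA; IC50 values came from a 4-parameter logistic fit of 8-point curves.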

[3] = biological target: AXL (Homo sapiens (Human), UniProt P30530); assay: AXL autophosphorylation ELISA in A-172 cells; format: cell-based; settings: cellular, Gas6 stimulated
In short: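 Serum-starved (24 h) A-172 glioblastoma cells pretreated 1 h with compounds (8-point curve, 0.3% DMSO), then stimulated 15 min with 1 μg/mL Gas6. Lysate phospho-AXL measured by sandwich ELISA against a phospho-AXL standard; IC50 from 4-parameter logistic fit between DMSO and reference-inhibitor controls.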

Human Axl (residues H473-A894 with Q764R), sequence (P30530 473-894 Q764R): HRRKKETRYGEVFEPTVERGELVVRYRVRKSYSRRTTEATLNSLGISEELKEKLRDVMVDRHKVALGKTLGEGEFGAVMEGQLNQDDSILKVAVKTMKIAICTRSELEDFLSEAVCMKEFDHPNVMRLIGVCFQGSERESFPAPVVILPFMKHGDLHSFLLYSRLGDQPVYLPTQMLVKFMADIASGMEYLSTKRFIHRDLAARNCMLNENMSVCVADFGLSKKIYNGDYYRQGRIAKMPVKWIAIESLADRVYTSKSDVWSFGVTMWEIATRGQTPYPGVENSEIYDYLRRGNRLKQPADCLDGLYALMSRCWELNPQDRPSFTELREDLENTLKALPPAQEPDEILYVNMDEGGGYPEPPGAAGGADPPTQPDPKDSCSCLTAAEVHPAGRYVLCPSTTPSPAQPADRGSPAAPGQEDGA
AXL, sequence (P30530 26-894): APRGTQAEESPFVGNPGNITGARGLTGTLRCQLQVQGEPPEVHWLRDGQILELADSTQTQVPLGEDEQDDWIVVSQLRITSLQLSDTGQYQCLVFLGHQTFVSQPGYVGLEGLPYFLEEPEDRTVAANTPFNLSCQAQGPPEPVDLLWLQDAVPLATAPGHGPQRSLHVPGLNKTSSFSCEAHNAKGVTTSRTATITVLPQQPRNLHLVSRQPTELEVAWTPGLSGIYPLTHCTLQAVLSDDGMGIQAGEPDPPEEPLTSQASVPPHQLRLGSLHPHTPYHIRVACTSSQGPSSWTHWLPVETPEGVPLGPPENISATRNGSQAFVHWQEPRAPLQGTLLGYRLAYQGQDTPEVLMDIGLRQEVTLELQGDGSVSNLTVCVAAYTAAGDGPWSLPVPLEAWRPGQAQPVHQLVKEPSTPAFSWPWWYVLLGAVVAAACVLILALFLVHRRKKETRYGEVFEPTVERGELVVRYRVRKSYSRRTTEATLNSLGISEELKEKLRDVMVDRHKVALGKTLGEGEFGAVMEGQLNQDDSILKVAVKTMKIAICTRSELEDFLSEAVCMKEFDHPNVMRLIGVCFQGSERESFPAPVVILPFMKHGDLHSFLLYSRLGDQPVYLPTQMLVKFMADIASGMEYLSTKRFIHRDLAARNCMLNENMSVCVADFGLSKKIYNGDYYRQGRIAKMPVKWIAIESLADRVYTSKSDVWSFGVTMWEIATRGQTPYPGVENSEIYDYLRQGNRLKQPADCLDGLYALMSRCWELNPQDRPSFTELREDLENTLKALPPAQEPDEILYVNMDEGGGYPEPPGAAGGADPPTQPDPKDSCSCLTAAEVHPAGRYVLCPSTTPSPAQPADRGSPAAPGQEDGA
KDR, sequence (P35968 20-1356): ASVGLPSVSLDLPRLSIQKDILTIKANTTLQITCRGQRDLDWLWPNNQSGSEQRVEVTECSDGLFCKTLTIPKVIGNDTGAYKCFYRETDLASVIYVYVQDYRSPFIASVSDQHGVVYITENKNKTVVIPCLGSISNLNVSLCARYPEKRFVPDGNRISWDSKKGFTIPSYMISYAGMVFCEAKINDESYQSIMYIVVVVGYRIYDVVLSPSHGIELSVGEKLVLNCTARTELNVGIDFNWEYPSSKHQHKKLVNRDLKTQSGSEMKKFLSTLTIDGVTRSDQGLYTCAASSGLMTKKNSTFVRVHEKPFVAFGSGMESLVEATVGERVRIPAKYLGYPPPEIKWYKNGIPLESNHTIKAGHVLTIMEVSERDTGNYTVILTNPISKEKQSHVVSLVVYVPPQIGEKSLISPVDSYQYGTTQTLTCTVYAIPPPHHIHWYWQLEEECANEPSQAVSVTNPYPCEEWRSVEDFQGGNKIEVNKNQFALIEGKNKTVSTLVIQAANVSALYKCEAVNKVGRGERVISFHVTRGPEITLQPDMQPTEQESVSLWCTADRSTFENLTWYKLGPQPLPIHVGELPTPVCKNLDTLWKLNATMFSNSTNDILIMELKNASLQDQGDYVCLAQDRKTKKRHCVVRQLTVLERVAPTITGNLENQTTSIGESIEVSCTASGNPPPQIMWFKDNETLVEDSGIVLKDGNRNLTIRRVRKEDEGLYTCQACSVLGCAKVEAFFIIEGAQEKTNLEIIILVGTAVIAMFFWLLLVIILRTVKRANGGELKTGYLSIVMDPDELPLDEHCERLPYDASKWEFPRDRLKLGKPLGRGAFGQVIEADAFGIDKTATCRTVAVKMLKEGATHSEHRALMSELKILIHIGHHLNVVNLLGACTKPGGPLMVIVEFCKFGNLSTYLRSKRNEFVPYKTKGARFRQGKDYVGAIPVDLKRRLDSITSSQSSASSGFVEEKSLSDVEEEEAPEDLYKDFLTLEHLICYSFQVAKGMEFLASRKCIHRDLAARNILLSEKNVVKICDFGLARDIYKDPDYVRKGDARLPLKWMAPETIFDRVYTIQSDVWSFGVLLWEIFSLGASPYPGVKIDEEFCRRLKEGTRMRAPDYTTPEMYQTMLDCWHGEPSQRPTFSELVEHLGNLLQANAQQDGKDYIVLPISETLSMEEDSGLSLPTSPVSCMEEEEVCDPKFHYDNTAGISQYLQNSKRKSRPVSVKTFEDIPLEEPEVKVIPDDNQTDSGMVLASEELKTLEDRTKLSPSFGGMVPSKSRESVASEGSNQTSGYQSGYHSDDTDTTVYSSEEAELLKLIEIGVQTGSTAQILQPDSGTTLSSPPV

Row | Compound | pIC50 [1] | pIC50 [2] | pIC50 [3]
1 | COC(=O)c1cc2c(Oc3ccc(NC(=O)C4(C(=O)Nc5ccc(F)cc5)CC4)cc3)ccnc2cc1OC [Compound 5, methyl 4-[4-[[1-[(4-fluorophenyl)carbamoyl]-cyclopropanecarbonyl]amino]-phenoxy]-7-methoxyquinoline-6-carboxylate] | 7.00 to 8.00 | ≥ 8.00 | 7.00 to 8.00
2 | COc1cc2nccc(Oc3ccc(NC(=O)C4(C(=O)Nc5ccc(F)cc5)CC4)cc3)c2cc1C(N)=O [Compound 7, 1-N-[4-(6-carbamoyl-7-methoxyquinolin-4-yl)oxyphenyl]-1-N′-(4-fluorophenyl)cyclopropane-1,1-dicarboxamide] |  | ≥ 8.00 | ≥ 8.00
3 | CNC(=O)c1cc2c(Oc3ccc(NC(=O)C4(C(=O)Nc5ccc(F)cc5)CC4)cc3)ccnc2cc1OC [Compound 8, 1-N′-(4-fluorophenyl)-1-N-[4-[7-methoxy-6-(methylcarbamoyl)quinolin-4-yl]oxyphenyl]cyclopropane-1,1-dicarboxamide] |  | ≥ 8.00 | ≥ 8.00
4 | CCNC(=O)c1cc2c(Oc3ccc(NC(=O)C4(C(=O)Nc5ccc(F)cc5)CC4)cc3)ccnc2cc1OC [Compound 9, 1-N-[4-[6-(ethylcarbamoyl)-7-methoxyquinolin-4-yl]oxyphenyl]-1-N′-(4-fluorophenyl)cyclopropane-1,1-dicarboxamide] |  | ≥ 8.00 | ≥ 8.00
5 | COc1cc2nccc(Oc3ccc(NC(=O)C4(C(=O)Nc5ccc(F)cc5)CC4)cc3)c2cc1C(=O)NC1COC1 [Compound 13, 1-N′-(4-fluorophenyl)-1-N-[4-[7-methoxy-6-(oxetan-3-ylcarbamoyl)quinolin-4-yl]oxyphenyl]cyclopropane-1,1-dicarboxamide] | 7.00 to 8.00 | ≥ 8.00 | 7.00 to 8.00
6 | COc1cc2nccc(Oc3ccc(NC(=O)C4(C(=O)Nc5ccc(F)cc5)CC4)cc3)c2cc1C(=O)NC1CN(C)C1 [Compound 14, 1-N′-(4-fluorophenyl)-1-N-[4-[7-methoxy-6-[(1-methylazetidin-3-yl)carbamoyl]quinolin-4-yl]oxyphenyl]cyclopropane-1,1-dicarboxamide] | 7.00 to 8.00 | 7.00 to 8.00 | ≥ 8.00
7 | COc1cc2nccc(Oc3ccc(NC(=O)C4(C(=O)Nc5ccc(F)cc5)CC4)cc3)c2cc1C(=O)N1CCC1 [Compound 15, 1-N-[4-[6-(azetidine-1-carbonyl)-7-methoxyquinolin-4-yl]oxyphenyl]-1-N′-(4-fluorophenyl)cyclopropane-1,1-dicarboxamide] | 7.00 to 8.00 | < 6.52 | 7.00 to 8.00
8 | COc1cc2nccc(Oc3ccc(NC(=O)C4(C(=O)Nc5ccc(F)cc5)CC4)cc3)c2cc1C(=O)N1CC(O)C1 [Compound 16, 1-N′-(4-fluorophenyl)-1-N-[4-[6-(3-hydroxyazetidine-1-carbonyl)-7-methoxyquinolin-4-yl]oxyphenyl]cyclopropane-1,1-dicarboxamide] | 7.00 to 8.00 | 6.52 to 7.00 | 7.00 to 8.00
9 | CONC(=O)c1cc2c(Oc3ccc(NC(=O)C4(C(=O)Nc5ccc(F)cc5)CC4)cc3)ccnc2cc1OC [Compound 17, 1-N′-(4-fluorophenyl)-1-N-[4-[7-methoxy-6-(methoxycarbamoyl)quinolin-4-yl]oxyphenyl]cyclopropane-1,1-dicarboxamide] |  | ≥ 8.00 | 7.00 to 8.00
10 | COc1cc2nccc(Oc3ccc(NC(=O)C4(C(=O)Nc5ccc(F)cc5)CC4)cc3)c2cc1C#N [Compound 37, 1-N-[4-(6-cyano-7-methoxyquinolin-4-yl)oxyphenyl]-1-N′-(4-fluorophenyl)cyclopropane-1,1-dicarboxamide] | 7.00 to 8.00 | 7.00 to 8.00 | 7.00 to 8.00
11 | COc1cc2nccc(Oc3ccc(NC(=O)C4(C(=O)Nc5ccc(F)cc5)CC4)cc3)c2cc1-c1ncco1 [Compound 45, 1-N′-(4-fluorophenyl)-1-N-[4-[7-methoxy-6-(1,3-oxazol-2-yl)quinolin-4-yl]oxyphenyl]cyclopropane-1,1-dicarboxamide] |  | ≥ 8.00 | ≥ 8.00
12 | NC(=O)c1ccc2nccc(Oc3ccc(NC(=O)C4(C(=O)Nc5ccc(F)cc5)CC4)cc3)c2c1 [Compound 58, 1-N-[4-(6-carbamoylquinolin-4-yl)oxyphenyl]-1-N′-(4-fluorophenyl)cyclopropane-1,1-dicarboxamide] | 7.00 to 8.00 | 6.52 to 7.00 | 7.00 to 8.00
13 | CNC(=O)c1ccc2nccc(Oc3ccc(NC(=O)C4(C(=O)Nc5ccc(F)cc5)CC4)cc3)c2c1 [Compound 59, 1-N′-(4-fluorophenyl)-1-N-[4-[6-(methylcarbamoyl)quinolin-4-yl]oxyphenyl]cyclopropane-1,1-dicarboxamide] | 7.00 to 8.00 | 6.52 to 7.00 | 6.52 to 7.00
14 | CN1CC(NC(=O)c2ccc3nccc(Oc4ccc(NC(=O)C5(C(=O)Nc6ccc(F)cc6)CC5)cc4)c3c2)C1 [Compound 60, 1-N′-(4-fluorophenyl)-1-N-[4-[6-[(1-methylazetidin-3-yl)carbamoyl]quinolin-4-yl]oxyphenyl]cyclopropane-1,1-dicarboxamide] | 7.00 to 8.00 | < 6.52 | 6.52 to 7.00
15 | NC(=O)c1cc2c(Oc3ccc(NC(=O)C4(C(=O)Nc5ccc(F)cc5)CC4)cc3)ccnc2cc1F [Compound 67, 1-N-[4-(6-carbamoyl-7-fluoroquinolin-4-yl)oxyphenyl]-1-N′-(4-fluorophenyl)cyclopropane-1,1-dicarboxamide] | 7.00 to 8.00 | 6.52 to 7.00 | 6.52 to 7.00
16 | NC(=O)c1cc2c(Oc3ccc(NC(=O)C4(C(=O)Nc5ccc(F)cc5)CC4)cc3)ccnc2cc1OCCCN1CCOCC1 [Compound 98, 1-N-[4-[6-carbamoyl-7-(3-morpholin-4-ylpropoxy)quinolin-4-yl]oxyphenyl]-1-N′-(4-fluorophenyl)cyclopropane-1,1-dicarboxamide] | ≥ 8.00 | ≥ 8.00 | ≥ 8.00
17 | COCCOc1cc2nccc(Oc3ccc(NC(=O)C4(C(=O)Nc5ccc(F)cc5)CC4)cc3)c2cc1C(N)=O [Compound 103, 1-N-[4-[6-carbamoyl-7-(2-methoxyethoxy)quinolin-4-yl]oxyphenyl]-1-N′-(4-fluorophenyl)cyclopropane-1,1-dicarboxamide] | 7.00 to 8.00 | ≥ 8.00 | ≥ 8.00
18 | COC(=O)c1cc2c(Oc3ccc(NC(=O)C4(C(=O)Nc5ccc(F)cc5)CC4)cc3Cl)ccnc2cc1OC [Compound 128, methyl 4-[2-chloro-4-[[1-[(4-fluorophenyl)carbamoyl]cyclopropanecarbonyl]amino]phenoxy]-7-methoxyquinoline-6-carboxylate] | ≥ 8.00 | ≥ 8.00 | 7.00 to 8.00
19 | COC(=O)c1cc2c(Oc3ccc(NC(=O)C4(C(=O)Nc5ccc(F)cc5)CC4)cc3F)ccnc2cc1OC [Compound 129, methyl 4-[2-fluoro-4-[[1-[(4-fluorophenyl)carbamoyl]cyclopropanecarbonyl]amino]phenoxy]-7-methoxyquinoline-6-carboxylate] | ≥ 8.00 | ≥ 8.00 | ≥ 8.00
20 | COc1cc2nccc(Oc3ccc(NC(=O)C4(C(=O)Nc5ccc(F)cc5)CC4)cc3Cl)c2cc1C(=O)O [Compound 130, 4-[2-chloro-4-[[1-[(4-fluorophenyl)carbamoyl]cyclopropanecarbonyl]amino]phenoxy]-7-methoxyquinoline-6-carboxylic acid] | 7.00 to 8.00 | < 6.52 | < 6.52
21 | COc1cc2nccc(Oc3ccc(NC(=O)C4(C(=O)Nc5ccc(F)cc5)CC4)cc3F)c2cc1C(=O)O [Compound 131, 4-[2-fluoro-4-[[1-[(4-fluorophenyl)carbamoyl]cyclopropanecarbonyl]amino]phenoxy]-7-methoxyquinoline-6-carboxylic acid] | 7.00 to 8.00 | < 6.52 | < 6.52
22 | COc1cc2nccc(Oc3ccc(NC(=O)C4(C(=O)Nc5ccc(F)cc5)CC4)cc3Cl)c2cc1C(N)=O [Compound 132, 1-N′-[4-(6-carbamoyl-7-methoxyquinolin-4-yl)oxy-3-chlorophenyl]-1-N-(4-fluorophenyl)cyclopropane-1,1-dicarboxamide] | ≥ 8.00 | ≥ 8.00 | ≥ 8.00
23 | COc1cc2nccc(Oc3ccc(NC(=O)C4(C(=O)Nc5ccc(F)cc5)CC4)cc3)c2cc1-c1ncc[nH]1 [Compound 191, 1-N′-(4-Fluorophenyl)-1-N-[4-[6-(1H-imidazol-2-yl)-7-methoxyquinolin-4-yl]oxyphenyl]cyclopropane-1,1-dicarboxamide] |  | ≥ 8.00 | ≥ 8.00
